Legend:
thymoma line EL4 = assay: Annexin V/PI apoptosis detection, EL4; type: cell-based
Protocol: Cell apoptosis was detected with Annexin V/PI apoptosis detection Kit. Briefly, cells were stimulated with HSLs or left untreated. 6 hrs later, cells were collected and stained with Annexin VFITC and PI for 15 min at RT, then the apoptotic effect was measured by flow cytometry. OT-I or OT-II splenocytes were pulsed with specific peptides or PMA and ionomycin mixture with or without HSLs or TNF α plus cycloheximide. 24 hrs later, cells and supernatants were collected separately. For OT-I activation, cells were stained with CD69 and CD8. For OT-II activation, cells were stained with CD69 and CD4. Cell activation was measured by flow cytometry. All supernatants were detected for IL-2 secretion by ELISA.

Fas = assay: DTSSP cross-linking assay, Fas; type: cell-based; settings: crosslinker DTSSP, prolonged incubation
Protocol: For FADD immunoprecipitation, 4 μg anti-mouse FADD pAb (Santa Cruz, H-181) were incubated with 100 μl protein A/G agarose for 2 hrs at RT. 3 million/ml purified CD4 T cells were stimulated with HSLs or left untreated. The cells were then collected and lysed with IP lysis buffer (50 mM HEPES pH 7.4, 150 mM NaCl, 1% NP-40, 1 mM EDTA, 1 mM PMSF, 1 mM NaF, 1 mM NaVO3 and protease inhibitor cocktails). The cell lysates were added into antibody-bead mixtures for 3 hrs at 4° C. Beads were then collected by low speed centrifugation (1000 g, 5 min) and washed 4 times with IP lysis buffer (300 mM NaCl added). After the last wash, pellets were suspended with 70 ul 2×SDS loading buffer and boiled for 5 min. For caspase 8 immunoprecipitation, 4 μg anti-Caspase 8 pAb (Santa Cruz, C-20) was incubated with 100 μl protein A/G agarose for 1 hr at RT. 3 million/ml H9 cells were treated with HSLs or left untreated. The samples were processed as in FADD IP. For cross-linking assay, CD4+ T cells isolated from C57BL/6 mice spleen or human THP-1 cells was stimulated with HSLs or left untreated, then cells were collected and cross-linked by 10 mM DTSSP at RT for 30 min and quenched with 1M Tris-HCl (pH7.5) for 15 min. […]

EGFR = assay: MSFQ, EGFR dimerization; type: cell-based, human; settings: in comparison with the carrier treatment
Protocol: Single molecule photo-bleaching step counting: 0.5 μg TNFR1(1-293)-peGFP-N1 plasmid or 0.5 μg EGFR-peGFP-N1 plasmid was transfected into HeLa cells and cultured for 5-6 hrs. Then the cells were stimulated with HSLs, TNF α, or left untreated, and washed twice with PBS and fixed with 4% paraformaldehyde before imaging. GFP was excited at 488 nm with a laser power of 5 mW measured after the laser passing through the objective. The collected fluorescent signal was gated by a band-pass filter HQ 525/50 (Chroma Technology). The EM gain of the EMCCD camera was set at 300. Movies of 400 frames were acquired for each sample at a full-frame rate of 10 Hz. For imaging analysis, the background fluorescence was firstly subtracted from the movie acquired from the fixed cells using the rolling ball method in Image J software, and regions of interest on movies were selected manually according to the outline of cells. To analyze the bleaching steps, the fluorescence time courses of each fluorescent spots were first constructed by Image J plugin and bleaching steps were then counted manually.

TNFR1 = target: T1, TNFR1 (Mus musculus, UniProt P25118); assay: Quantum dot-based single particle tracking, TNFR1; type: cell-based
T1 construct: To track individual TNFR1 on the cell membrane; endogenous in cells
T1 sequence (P25118 30-454): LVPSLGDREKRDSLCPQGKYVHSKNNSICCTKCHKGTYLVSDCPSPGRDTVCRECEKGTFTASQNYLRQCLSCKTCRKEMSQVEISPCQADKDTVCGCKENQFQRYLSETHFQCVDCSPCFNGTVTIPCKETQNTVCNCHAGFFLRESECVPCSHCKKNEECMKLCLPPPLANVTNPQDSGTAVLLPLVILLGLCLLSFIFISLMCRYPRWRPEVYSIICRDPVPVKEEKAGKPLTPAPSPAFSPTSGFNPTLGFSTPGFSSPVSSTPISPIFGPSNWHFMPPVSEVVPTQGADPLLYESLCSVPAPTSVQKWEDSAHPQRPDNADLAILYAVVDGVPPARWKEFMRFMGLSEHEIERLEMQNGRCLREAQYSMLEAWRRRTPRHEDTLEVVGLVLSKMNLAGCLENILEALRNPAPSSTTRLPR
Protocol: To track individual TNFR1 on the cell membrane, anti-TNFR1 IgG (was first papain digested to yield a Fab fragment. The Fab was then conjugated with biotin through the unique —SH at its C terminal. To prepare anti TNFR1 Fab QD conjugates, a solution of 0.7 nM anti TNFR1—Fab-biotin in 1 ml of DMEM was added drop-wise to 1 ml of 2 nM QD 605-streptavidin conjugate. Cell monolayers (50% confluent) previously serum starved for 1 hr were treated with 3OC12 HSL or left untreated and incubated with […] of the final anti TNFR1-Fab-QD solution at 25° C. for 2 min. The cells were then washed twice with PBS at 25° C., placed in serum-free medium, and loaded for imaging. For single-FcRγIIA tracking, Fc fragment was obtained by papain digestion of an anti-BSA IgG (Sigma Aldrich). Fc-QD conjugate was produced as described before. Cos-1 cells were transiently transfected with Fcγ RIIA plasmid, 24 hrs later, cells were stimulated with 3OC12 HSL or left untreated and incubated with […] of the final Fc-QD solution at 25° C. for 2 min. Quantum dot-labeled cells were imaged in TIRF mode. The fluorescence was excited at 488 nm and gated by a band-pass filter (575-640, Carl Zeiss). The excitation power was about 2 mW measured after the objective. Movies of 400 frames were acquired for each sample at a full-frame rate of 17 Hz. Individual trajectories were constructed by Utrack written in Matlab. Diffusion coefficient and plot area were calculated by customized programs written with Matlab. For motion pattern determination by MSD-t analysis 5: linear, simple Brownian diffusion; open-up parabolic, directed diffusion; open-down parabolic, restricted diffusion; and near zero, stationary.

Compound: CCCCCCCCCC(=O)CC(=O)N[C@H]1CCOC1=O [3OC12 HSL, N-(3-oxo-dodecanoyl) homoserine lactone]
- sensitivity to 3OC12 HSL (thymoma line EL4): sensitive
- Fas oligomerization (Fas): did not show a significant change
- EGFR dimerization (EGFR): increased the dimerization
- TNFR1 diffusion coefficient (TNFR1): significantly increased
- TNFR1 x-y surface area coverage (TNFR1): high x-y surface area coverage
- TNFR1 motion pattern (TNFR1; MSD analysis): more likely to fall into the simple mode of motion

From patent US11583570B2, “Use of autoinducer-related pathway in inducing apoptosis and anti-infective therapy” (TSINGHUA UNIVERSITY, priority 2017, dated 2023)
